Reference: ChEMBL document CHEMBL4177550, “Bi- and Tetracyclic Spirotetronates from the Coal Mine Fire Isolate Streptomyces sp. LC-6-2” (J Nat Prod, 2017)
Activity calls are given as the source filed them.

Key:
Saccharomyces cerevisiae = assay: Antifungal activity against Saccharomyces cerevisiae ATCC 204508 up to 60 uM after 16 to 48 hrs; type: functional, organism-based
Escherichia coli = assay: Antibacterial activity against Escherichia coli NRRL B-3708 up to 60 uM after 16 to 48 hrs; type: functional, organism-based
Salmonella enterica = assay: Antibacterial activity against Salmonella enterica ATCC 10708 up to 60 uM after 16 to 48 hrs; type: functional, organism-based
Micrococcus luteus = assay: Antibacterial activity against Micrococcus luteus NRRL B-287 up to 60 uM after 16 to 48 hrs; type: functional, organism-based
Staphylococcus aureus = assay: Antibacterial activity against Staphylococcus aureus ATCC 6538 up to 60 uM after 16 to 48 hrs; type: functional, organism-based
A549 = assay: Cytotoxicity against human A549 cells assessed as decrease in cell viability up to 10 uM after 48 hrs by resazurin assay; type: functional, cell-based

Measured: Activity

C[C@@H]1C[C@H](C)/C(O)=C2/C(=O)O[C@]34C[C@@H](CO)[C@]5(C)O[C@]23[C@@H](C[C@H]4[C@@H]5O)C1=O
inactive: Saccharomyces cerevisiae | Escherichia coli | Salmonella enterica | Micrococcus luteus | Staphylococcus aureus | A549

C[C@H]1C[C@](C)(O)C(=O)[C@@H]2[C@@H](O)[C@H]3[C@H](O)[C@@]4(C)O[C@@]25/C(=C\1O)C(=O)O[C@@]35C[C@@]4(C)O
inactive: Saccharomyces cerevisiae | Escherichia coli | Salmonella enterica | Micrococcus luteus | Staphylococcus aureus | A549

C[C@@H]1C[C@]23OC(=O)/C4=C(\O)[C@@H](C)C[C@](C)(O)C(=O)[C@@H]5[C@@H](O)[C@H]2[C@H](O)[C@@]1(C)O[C@@]453
inactive: Saccharomyces cerevisiae | Escherichia coli | Salmonella enterica | Micrococcus luteus | Staphylococcus aureus | A549

C[C@@H]1C[C@@]23OC(=O)C4=C2O[C@]1(C)[C@@H](O)[C@@H]3[C@H]1O[C@H]1C(=O)[C@@](C)(O)C[C@H](C)C4=O
inactive: Saccharomyces cerevisiae | Escherichia coli | Salmonella enterica | Micrococcus luteus | Staphylococcus aureus | A549

CC(=O)C[C@H](C)C(=O)C1=C(O)[C@@]2(C[C@@H](C)C(C)=C[C@H]2/C=C/C(=O)O)OC1=O
inactive: Saccharomyces cerevisiae | Escherichia coli | Salmonella enterica | Micrococcus luteus | Staphylococcus aureus | A549

C[C@@H]1C[C@H](C)/C(O)=C2/C(=O)O[C@]34C[C@@H](C)[C@]5(C)O[C@]23[C@@H](C[C@H]4[C@@H]5O)C1=O
inactive: Saccharomyces cerevisiae | Escherichia coli | Salmonella enterica | Micrococcus luteus | Staphylococcus aureus | A549

C[C@@H]1C[C@H](C)/C(O)=C2/C(=O)O[C@]34C[C@@](C)(O)[C@]5(C)O[C@]23[C@@H](C[C@@]42O[C@H]25)C1=O
inactive: Saccharomyces cerevisiae | Escherichia coli | Salmonella enterica | Micrococcus luteus | Staphylococcus aureus | A549

C[C@@H]1C[C@H](C)C(=O)C2=C3O[C@@]4(C)[C@H](CO)C[C@]3(OC2=O)[C@@H](CCC1=O)[C@@H]4O
inactive: Saccharomyces cerevisiae | Escherichia coli | Salmonella enterica | Micrococcus luteus | Staphylococcus aureus | A549

C[C@H]1C[C@](C)(O)C(=O)C[C@@H]2/C(=C\1O)C(=O)O[C@]13C[C@H](C)[C@](C)(OC1=O)[C@@H](O)[C@H]23
inactive: Saccharomyces cerevisiae | Escherichia coli | Salmonella enterica | Micrococcus luteus | Staphylococcus aureus | A549

C[C@@H]1C[C@H](C)/C(O)=C2/C(=O)O[C@]34C[C@@](C)(O)[C@]5(C)O[C@]23[C@@H](C[C@H]4[C@@H]5O)C1=O
inactive: Saccharomyces cerevisiae | Escherichia coli | Salmonella enterica | Micrococcus luteus | Staphylococcus aureus | A549

C[C@H]1C[C@](C)(O)C(=O)[C@@H]2[C@@H](O)[C@H]3[C@H](O)[C@@]4(C)O[C@@]25/C(=C\1O)C(=O)O[C@@]35C[C@H]4CO
inactive: Saccharomyces cerevisiae | Escherichia coli | Salmonella enterica | Micrococcus luteus | Staphylococcus aureus | A549

CO[C@H]1[C@H]2[C@H](O)[C@@]3(C)O[C@@]45/C(=C(/O)[C@@H](C)C[C@](C)(O)C(=O)[C@H]14)C(=O)O[C@@]25C[C@H]3C
inactive: Saccharomyces cerevisiae | Escherichia coli | Salmonella enterica | Micrococcus luteus | Staphylococcus aureus | A549
